Measurements published in patent US6486193B2, “3-substituted pyrrolidines useful as inhibitors of matrix metalloproteinases” (Aventis Pharmaceuticals Inc., priority 1998, dated 2002).

Columns and labels:
Type in all cases: biochemical
[1] = molecular target: T1, MMP-2 (Homo sapiens, UniProt P08253); experiment: Determination of inhibition constant (Ki) for MMP-2, fluorogenic substrate; details: footnote: results are identical for MMP-1, MMP-2, MMP-3, MMP-13 and MMP-14, read-out: MMP Ki app
T1 construct: made in house; host or cells: Pichia pastoris (vector pHIL-D2; strains KM71 and SMD1168; clone 24S)
T1 sequence (P08253 110-660): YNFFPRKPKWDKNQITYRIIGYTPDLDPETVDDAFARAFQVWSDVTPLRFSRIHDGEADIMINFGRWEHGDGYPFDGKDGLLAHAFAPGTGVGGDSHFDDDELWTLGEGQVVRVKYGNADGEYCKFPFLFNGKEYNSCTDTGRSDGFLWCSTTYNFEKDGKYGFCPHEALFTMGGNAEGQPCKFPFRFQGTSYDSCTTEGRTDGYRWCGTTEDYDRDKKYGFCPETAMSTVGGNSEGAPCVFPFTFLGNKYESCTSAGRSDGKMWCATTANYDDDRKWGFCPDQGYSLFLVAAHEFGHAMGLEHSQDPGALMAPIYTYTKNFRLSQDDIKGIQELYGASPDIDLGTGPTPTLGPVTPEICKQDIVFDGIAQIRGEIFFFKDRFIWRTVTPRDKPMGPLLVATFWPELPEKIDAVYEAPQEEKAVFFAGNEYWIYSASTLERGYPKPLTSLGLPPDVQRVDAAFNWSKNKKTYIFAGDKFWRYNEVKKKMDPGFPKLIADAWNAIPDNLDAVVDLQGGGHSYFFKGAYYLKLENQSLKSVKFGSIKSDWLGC
Description: Recombinant MMP-2 was purified from the fermentation broth of yeast Pichia pastoris that carries the integrated MMP-2 gene into its chromosome. In brief, the full-length cDNA for MMP-2 was obtained by reverse transcription of RNA from human melanoma A375M cell line by the reverse transcriptase polymerase chain reaction (RT-PCR) using sequence specific oligonucleotides. The nucleotide sequence was confirmed by Taq cycle sequencing. The cDNA was ligated into the Pichia pastoris expression vector pHIL-D2 in such a way that the expression of pro-MMP-2 is under the control of the methanol inducible alcohol oxidase promoter. The expression construct was digested with either SalI or NsiI and used to transform the Pichia pastoris strains KM71 and SMD1 168. A large-scale culture of a selected clone designated 24S was performed in a high cell density fermentor and the recombinant MMP-2 was purified from the culture supernatant by gelatin-sepharose 4B (Pharmacia). The enzyme is sufficiently pure at this stage for routine measurement of inhibition. If desired, however, the enzyme may be further purified by AcA 44 gel filtration (Spectra).
The active MMP-2 was obtained by activation of proMMP-2 at 37° C. for 1 h with 4-aminophenylmercuric acetate which was then removed by a Sephadex G-50 spin column. The enzyme is assayed using a fluorogenic substrate, Mca-Pro-Leu-Gly-Leu-Dpa-Ala-Arg-NH2, at 37° C. in 2.0 mL of assay buffer containing 50 mM Tris, pH 7.6, 0.2 M sodium chloride, 50 mM calcium chloride, 0.02% Brij-35, and 50 μM β-mercaptoethanol. The increase in fluorescence is monitored (λex 328 nm, λem 393 nm). Substrate and inhibitor stock solutions are made in DMF. The enzyme is added at the last to start the reaction. For routine measurement of a Ki value for a reversible, competitive inhibitor, the initial rates in the presence of at least four inhibitor concentrations (two inhibitor concentrations above Ki and two below Ki) are measured using [S]=1 μM (<<Km) and [MMP-2]=0.4 nM. Under these conditions, the measured Ki, app is close to true Ki.

[2] = molecular target: MMP-13 (Homo sapiens, UniProt P45452); experiment: Ki app for MMP-13; details: footnote: results are identical for MMP-1, MMP-2, MMP-3, MMP-13 and MMP-14
[3] = molecular target: MMP-14 (Homo sapiens, UniProt P50281); experiment: Ki app for MMP-14; details: footnote: results are identical for MMP-1, MMP-2, MMP-3, MMP-13 and MMP-14
[4] = molecular target: MMP-8 (Homo sapiens, UniProt P22894); experiment: MMP-8 enzyme activity, quenched fluorigenic substrate, 96 well plate; details: read-out: MMP-8 Ki app
MMP-8, sequence (P22894 101-467): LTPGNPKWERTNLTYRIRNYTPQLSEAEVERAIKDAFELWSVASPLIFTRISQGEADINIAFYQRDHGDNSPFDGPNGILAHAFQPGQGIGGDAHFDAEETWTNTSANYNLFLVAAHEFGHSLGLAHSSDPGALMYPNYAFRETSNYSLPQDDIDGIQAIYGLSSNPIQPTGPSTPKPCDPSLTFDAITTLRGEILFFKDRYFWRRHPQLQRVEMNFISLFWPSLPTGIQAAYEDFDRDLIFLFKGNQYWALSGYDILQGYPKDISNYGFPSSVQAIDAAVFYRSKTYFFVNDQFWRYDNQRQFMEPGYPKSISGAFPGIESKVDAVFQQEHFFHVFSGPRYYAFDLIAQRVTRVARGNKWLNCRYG
Description: The MMP-8 data was determined according to Knight C. G. et al., Febs Lett, 296, 263-266 (1992), “A novel coumarin-labelled peptide for sensitive continuous assays of the matrix metalloproteinases” in the modification of K. U. Weithmann et al., Inflamm. Res. 46 (7), 246-252 (1997), “Effects of tiaprofenic acid on urinary pyridinium crosslinks in adjuvant arthritic rats: Comparison and doxycycline effects on human matrix metalloproteinases and cellular cytokine generation in vitro” as follows:
Enzyme activity of MMP was determined in 96 well titer plate format in a luminescence spectrometer (LS 50B, Perkin Elmer, Langen, FRG), using the quenched fluorigenic substrate 7-methoxycoumarin-4-yl) acetyl-pro-leu-gly-leu-3-(2′,4′-dinitrophenyl)-L-2,3-diaminopropionyl-ala-arg-NH2 (λex=328 nm, λem=393 nm), available from Bachem, Heidelberg, FRG. Each well contained: 70 μl buffer (0.1 mol/l tris/HCl, pH=7.5; 0.1 mol/l NaCl; 0.01 mol/l CaCl2,0.05% Brij 35™), 10 μl enzyme, and 10 μl drug in 10%DMSO. After preincubation for 15 min at room temperature the reaction was started by addition of 10 μl substrate (1 mmol/l in 10% DMSO). Initial velocity of enzymatic reaction was determined without drug (=100%) or, resp. with different drug concentrations.

| SMILES | Ki [1] | Ki [2] | Ki [3] | Ki [4] |
| --- | --- | --- | --- | --- |
| CNC(=O)[C@@H](Cc1cccnc1)NC(=O)[C@@H]1[C@@H](Cc2ccccc2)CCN1C(=O)[C@@H](S)C(C)C [Compound 1e, (2S,3S)-3-Benzyl-1-((S)-2-mercapto-3-methyl-butanoyl)-pyrrolidine-2-carboxylic acid ((R)-1-methylcarbamoyl-2-pyridin-3-yl-ethyl)-amide] | > 10 µM | > 10 µM | > 10 µM | > 10 µM |
| CNC(=O)[C@@H](NC(=O)[C@@H]1[C@H](Cc2ccccc2)CCN1C(=O)[C@@H](S)C(C)C)C(C)(C)C [Compound 1h, (2S,3R)-3-Benzyl-1-((S)-2-mercapto-3-methyl-butanoyl)-pyrrolidine-2-carboxylic acid ((S)-2,2-dimethyl-1-methylcarbamoyl-propyl)-amide] | > 10 µM | > 10 µM | > 10 µM | 3 µM |
| CNC(=O)[C@H](Cc1ccc(O)cc1)NC(=O)[C@@H]1[C@@H](Cc2ccccc2)CCN1C(=O)[C@@H](S)C(C)C [Compound 1a, (2S,3S)-3-Benzyl-1-((S)-2-mercapto-3-methyl-butanoyl)-pyrrolidine-2-carboxylic acid [(S)-2-(4-hydroxy-phenyl)-1-methylcarbamoyl-ethyl]-amide] | > 10 µM | > 10 µM | > 10 µM | > 10 µM |
| CNC(=O)[C@@H](Cc1cccnc1)NC(=O)[C@@H]1C(Cc2ccccc2)CCN1C(=O)[C@@H](S)C(C)C (stereo in doubt) [Compound 1f, (2S,3S)-3-Benzyl-1-((S)-2-mercapto-3-methyl-butanoyl)-pyrrolidine-2-carboxylic acid ((R)-1-methylcarbamoyl-2-pyridin-3-yl-ethyl)-amide] | > 10 µM | > 10 µM | > 10 µM | > 10 µM |
| CNC(=O)[C@H](Cc1cccnc1)NC(=O)[C@@H]1[C@H](Cc2ccccc2)CCN1C(=O)[C@@H](S)C(C)C [Compound 1d, (2S,3R)-3-Benzyl-1-((S)-2-mercapto-3-methyl-butanoyl)-pyrrolidine-2-carboxylic acid ((S)-1-methylcarbamoyl-2-pyridin-3-yl-ethyl)-amide] | > 10 µM | > 10 µM | > 10 µM | 4 µM |
| CNC(=O)[C@H](Cc1cccnc1)NC(=O)[C@@H]1[C@@H](Cc2ccccc2)CCN1C(=O)[C@@H](S)C(C)C [Compound 1c, (2S,3S)-3-Benzyl-1-((S)-2-mercapto-3-methyl-butanoyl)-pyrrolidine-2-carboxylic acid ((S)-1-methylcarbamoyl-2-pyridin-3-yl-ethyl)-amide] | > 10 µM | > 10 µM | > 10 µM | 9 µM |
| CNC(=O)[C@@H](NC(=O)[C@@H]1[C@@H](Cc2ccccc2)CCN1C(=O)[C@@H](S)C(C)C)C(C)(C)C [Compound 1g, (2S,3S)-3-Benzyl-1-((S)-2-mercapto-3-methyl-butanoyl)-pyrrolidine-2-carboxylic acid ((S)-2,2-dimethyl-1-methylcarbamoyl-propyl)-amide] | > 10 µM | > 10 µM | > 10 µM | > 10 µM |
| CNC(=O)[C@H](Cc1ccc(O)cc1)NC(=O)[C@@H]1[C@H](Cc2ccccc2)CCN1C(=O)[C@@H](S)C(C)C [Compound 1b, (2S,3R)-3-Benzyl-1-((S)-2-mercapto-3-methyl-butanoyl)-pyrrolidine-2-carboxylic acid [(S)-2-(4-hydroxy-phenyl)-1-methylcarbamoyl-ethyl]-amide] | > 10 µM | > 10 µM | > 10 µM | 3 µM |
